Data reported in article PMC11211886 (Frontiers in Pharmacology, 2024).
pIC50: −log10 of the molar value. Several values for one entry are separate records, joined by “and”; a condition that tells them apart may be missing. Equal values may be shown once.

Key:
CYP2C9 mRNA = test: CYP induction in human hepatocytes, CYP2C9 mRNA (RT-PCR)
Method: […] […] […] Enzyme activity for each CYP isoform was reported as a fold change over vehicle control and the percent of positive control (detailed calculation in Supplementary 1.1). Hepatocytes were harvested with a lysis buffer from RNeasy 96 Kit (Qiagen Inc., Germantown, MD, USA) to isolate RNA, which was analyzed by real-time quantitative polymerase chain reaction (RT-PCR). […] Emax (the maximal observed induction) and EC50 (the concentration that supports half-maximal induction) were estimated by non-linear regression of fold increase in CYP mRNA expression versus concentration plots.
% of positive control = [(fold change in treated sample)-1] / [(fold change in positive control)-1] × 100
Based on the gene expression, a minimum of 4-fold increase of positive control compared to vehicle control, a minimum of 2-fold increase of the test article compared vehicle control and increased in a concentration-dependent manner was considered as the cutoff for a positive signal in in vitro induction assay.

CYP2B6 [1] = molecular target: T1, CYP2B6 (Homo sapiens, UniProt P20813); test: Reversible CYP inhibition in HLM, CYP2B6 (bupropion); type: in vitro ADME; conditions: for enzyme activity remaining: CYP2B6, HLM
T1 construct: tissue Life Technologies (Durham, NC, USA); host or cells: human liver microsomes
T1 sequence (P20813 1-491): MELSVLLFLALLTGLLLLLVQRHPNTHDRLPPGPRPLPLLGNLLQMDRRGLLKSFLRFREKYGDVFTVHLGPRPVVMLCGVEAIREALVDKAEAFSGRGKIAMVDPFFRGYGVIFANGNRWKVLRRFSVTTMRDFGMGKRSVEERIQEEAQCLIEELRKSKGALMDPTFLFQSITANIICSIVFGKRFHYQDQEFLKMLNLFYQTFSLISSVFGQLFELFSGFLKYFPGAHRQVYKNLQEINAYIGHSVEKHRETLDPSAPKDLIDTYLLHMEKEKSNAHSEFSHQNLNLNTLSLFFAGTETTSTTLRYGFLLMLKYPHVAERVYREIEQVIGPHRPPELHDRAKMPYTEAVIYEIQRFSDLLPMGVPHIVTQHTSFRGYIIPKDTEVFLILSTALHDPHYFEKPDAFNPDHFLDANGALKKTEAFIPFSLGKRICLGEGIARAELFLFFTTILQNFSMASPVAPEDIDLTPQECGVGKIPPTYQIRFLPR
Method: The markers used to determine the activities of CYP isoforms were phenacetin O-deethylation for CYP1A2 (probe substrate: 50 µM phenacetin), bupropion hydroxylation for CYP2B6 (probe substrate: 70 µM bupropion), paclitaxel 6α-hydroxylation for CYP2C8 (probe substrate: 10 µM paclitaxel), diclofenac 4′-hydroxylation for CYP2C9 (probe substrate: 5 µM diclofenac), S-(+)-mephenytoin 4′-hydroxylation for CYP2C19 (probe substrate: 20 µM S-(+)-mephenytoin), dextromethorphan O-demethylation for CYP2D6 (probe substrate: 6 µM dextromethorphan), chlorzoxazone 6′-hydroxylation for CYP2E1 (probe substrate: 70 µM chlorzoxazone), and testosterone 6β-hydroxylation and midazolam 1′-hydroxylation for CYP3A4/5 (probe substrate: 45 µM testosterone and 5 µM midazolam). […] Alpha-naphthoflavone (0.04 µM), 2-phenyl-2-(1-piperidinyl)propane (5 µM), quercetin (1 µM), sulfaphenazole (0.5 µM), ticlopidine (4 µM), quinidine (0.2 µM), diethyldithiocarbamate (20 µM), and ketoconazole (0.05 µM) were used as positive inhibitors of CYP1A2, 2B6, 2C8, 2C9, 2C19, 2D6, 2E1, and 3A4, respectively. The vehicle control was prepared in the same composition as inhibitor solutions but free of inhibitors. The concentrations of probe substrates were close to Km values that were determined in-house and within the range recommended by the FDA ([Huang et al., 2007]). Reaction mixtures were incubated at 37°C for 5, 20, or 30 min, depending on the probe substrates of CYP isoforms. The reactions were terminated by adding cold acetonitrile containing IS, and the terminated incubation mixtures were centrifuged at 3,000 g for 10 min before LC-MS/MS analysis.

CYP2B6 [2] = molecular target: T1, CYP2B6; test: Time-dependent CYP inhibition in HLM, CYP2B6; type: in vitro ADME; conditions: 10 μM, 30 min pre-incubation with NADPH
Method: The procedure of time-dependent CYP inhibition was similar to that used for CYP reversible inhibition, as mentioned above, except that a pre-incubation step was added. […] Another appropriate volume of the NADPH-regenerating system and probe substrate were added to initiate the CYP isoform enzyme activity test step. For this step, the incubation period was 10 min, except for CYP2B6, CYP2C8, and CYP3A4/5 (probe substrate: midazolam), which was 3 min to make sure the reaction was under initial linear rates. After incubation for the designated time periods at 37°C, the ice-cold acetonitrile containing IS was added to quench the reaction. […] (Ainactivator/[…] represents the enzyme activity remaining due to the inhibition by the diluted inactivator in the enzyme activity test step, and (Ainactivator/[…] represents the remaining enzyme activity due to pre-incubation loss plus inhibition by the diluted inactivator in the enzyme activity test step.

In the case of `C[C@H](Nc1ncnc(N)c1C#N)c1cc2ncc(Cl)n2nc1-c1ccccc1` [Amdizalisib], the “induction on CYP2C9 mRNA expression” value (CYP2C9 mRNA; 20 uM) was >2-fold induction on CYP1A2, 2B6, 3A4, 2C9 mRNA expression at 20 uM, the “Gene expression Percent of PC (%)” value (CYP2C9 mRNA; CYP2C9, donor eight, 0.3 µM) was 5.23% and the “Gene expression Percent of PC (%)” value (CYP2C9 mRNA; CYP2C9, donor eight, 3 µM) was 20.0%. For the same compound, the “Gene expression Percent of PC (%)” value (CYP2C9 mRNA; CYP2C9, donor eight, 20 µM) was 54.5%, the “Gene expression Percent of PC (%)” value (CYP2C9 mRNA; CYP2C9, donor four, 0.3 µM) was 16.1% and the “Gene expression Percent of PC (%)” value (CYP2C9 mRNA; CYP2C9, donor four, 3 µM) was 28.8%. The “Gene expression Percent of PC (%)” value (CYP2C9 mRNA; CYP2C9, donor four, 20 µM) was 81.6%, the “Gene expression Percent of PC (%)” value (CYP2C9 mRNA; CYP2C9, donor one, 0.3 µM) was 12.7% and the “Gene expression Percent of PC (%)” value (CYP2C9 mRNA; CYP2C9, donor one, 3 µM) was 18.0%. For the same compound, the “Gene expression Percent of PC (%)” value (CYP2C9 mRNA; CYP2C9, donor one, 20 µM) was 59.0%, the enzyme activity remaining (CYP2B6 [1]; 0.4 μM) was 100% and 98.9% and the enzyme activity remaining (CYP2B6 [1]; 2 μM) was 96.2% and 92.1%. For the same compound, the enzyme activity remaining (CYP2B6 [1]; 5 μM) was 97.4% and 95.1%, the enzyme activity remaining (CYP2B6 [1]; 10 μM) was 97.7% and 96.6% and the enzyme activity remaining (CYP2B6 [1]; 25 μM) was 87.6%. The enzyme activity remaining (CYP2B6 [1]; 50 μM) was 79.7% and 77.1%, the pIC50 (CYP2B6 [1]; HLM, reversible, without pre-incubation) was < 4.30 and the “activity loss of CYP2B6” value (CYP2B6 [2]) was “less than 10%”.
